Test results as given in patent US9623016B2, “Antibacterial compounds” (Emergent Virology LLC, priority 2013, dated 2017).
Like-named read-outs stand apart in the source and are kept apart here.

Assays:
[1] = test system: Staphylococcus aureus USA300; details: 200 mg/kg UV-4B orally TID for 10 days, from 3 days before IP challenge; water control 30%
Experimental: The challenge inoculum included 6.13e4 cfu USA300+3% Hog mucin which causes bacteremia/sepsis within 24-72 h. […] The mice used were 6-8 week old female BALB/c mice in groups of 10. One group of 5 mice was also included to examine the potential toxicity of 3% hog mucin. Endpoint was day 10 post infection, death, or euthanasia Animals displaying severe illness as determined by >30% weight loss, extreme lethargy, or paralysis were euthanized. Observation included daily weight, health checks, and temperatures starting with the initiation of dosing until 10 days post challenge.

E. coli (WT) [2] = test system: E. coli (WT)
Experimental: (§1) The MIC assay is a technique used to determine the lowest concentration of a particular antibiotic needed to inhibit visible growth of bacteria. In this method, two fold serial dilutions of the compound were prepared in broth media. An inoculum of overnight bacterial cultures will be prepared in the same broth medium. The serial dilution tubes will be inoculated with 0.025 ml of undiluted over-night culture (1:100), a 1×10-2 dilution (1:10,000), or a 1×10-4 dilution (1:1,000,000) of bacterial suspension. Results were recorded after 24 hour incubation at 35° C. without shaking by measuring OD600. The MIC is determined by the lowest concentration of compound where no growth is visible.

Streptococcus pneumoniae = details: Based on SBA agar (not confirmatory)
Experimental: as §1

P. aeruginosa 4858 = test system: P. aeruginosa 4858
Experimental: as §1

P. aeruginosa 4990 [3] = test system: P. aeruginosa 4990
Experimental: as §1

E. coli (WT) [4] = test system: E. coli (WT); remark: listed apart in the source
Experimental: (§2) MBC is the lowest concentration of compound required to kill an organism. […] In the case of small colony variants, growth might not occur earlier than 48 hours.

E. coli (K12) = test system: E. coli (K12)
Experimental: as §2

P. aeruginosa 4961 = test system: P. aeruginosa 4961
Experimental: as §2

P. aeruginosa 4990 [5] = test system: P. aeruginosa 4990; remark: listed apart in the source
Experimental: as §2

## COCCCCCCCCCN1C[C@H](O)[C@@H](O)[C@H](O)[C@H]1CO.Cl [UV-4B, hydrochloric acid salt of N-(9-Methoxynonyl)deoxynojirimycin]
[1]
  survival: 80%
E. coli (WT) [2]; Table 3
  MIC: 5000 µg/mL
E. coli (WT) [2]; UV-4B 0.02 mg/ml
  visible growth: +
E. coli (WT) [2]; UV-4B 0.04 mg/ml
  visible growth: +
E. coli (WT) [2]; UV-4B 0.08 mg/ml
  visible growth: +
E. coli (WT) [2]; UV-4B 0.16 mg/ml
  visible growth: +
E. coli (WT) [2]; UV-4B 0.31 mg/ml
  visible growth: +
E. coli (WT) [2]; UV-4B 0.63 mg/ml
  visible growth: +
E. coli (WT) [2]; UV-4B 2.50 mg/ml
  visible growth: +
E. coli (WT) [2]; UV-4B 5 mg/ml
  visible growth: −
E. coli (WT) [2]; UV-4B 10 mg/ml
  visible growth: −
Streptococcus pneumoniae; Table 3
  MIC: 10000 µg/mL
Streptococcus pneumoniae; UV-4B 0.04 mg/ml
  visible growth: +
Streptococcus pneumoniae; UV-4B 0.08 mg/ml
  visible growth: +
Streptococcus pneumoniae; UV-4B 0.16 mg/ml
  visible growth: +
Streptococcus pneumoniae; UV-4B 0.31 mg/ml
  visible growth: +
Streptococcus pneumoniae; UV-4B 0.63 mg/ml
  visible growth: +
Streptococcus pneumoniae; UV-4B 2.50 mg/ml
  visible growth: +
Streptococcus pneumoniae; UV-4B 5 mg/ml
  visible growth: +
Streptococcus pneumoniae; UV-4B 10 mg/ml
  visible growth: −
P. aeruginosa 4858; Table 3
  MIC: 5000 µg/mL
P. aeruginosa 4858; Table 4
  MIC: 2500 µg/mL
P. aeruginosa 4858; Table 4, 0.02 mg/ml
  growth (OD600): + (+ OD600 <0.05)
P. aeruginosa 4858; Table 4, 0.04 mg/ml
  growth (OD600): + (+ OD600 <0.05)
P. aeruginosa 4858; Table 4, 0.08 mg/ml
  growth (OD600): + (+ OD600 <0.05)
P. aeruginosa 4858; Table 4, 0.16 mg/ml
  growth (OD600): + (+ OD600 <0.05)
P. aeruginosa 4858; Table 4, 0.31 mg/ml
  growth (OD600): + (+ OD600 <0.05)
P. aeruginosa 4858; Table 4, 0.63 mg/ml
  growth (OD600): + (+ OD600 <0.05)
P. aeruginosa 4858; Table 4, 2.50 mg/ml
  growth (OD600): − (− OD600 >0.05)
P. aeruginosa 4858; Table 4, 5 mg/ml
  growth (OD600): − (− OD600 >0.05)
P. aeruginosa 4858; Table 4, 10 mg/ml
  growth (OD600): − (− OD600 >0.05)
P. aeruginosa 4858; Table 4, 20 mg/ml
  growth (OD600): − (− OD600 >0.05)
P. aeruginosa 4858; UV-4B 0.63 mg/ml
  visible growth: +
P. aeruginosa 4858; UV-4B 2.50 mg/ml
  visible growth: +
P. aeruginosa 4858; UV-4B 5 mg/ml
  visible growth: −
P. aeruginosa 4858; UV-4B 10 mg/ml
  visible growth: −
P. aeruginosa 4858; UV-4B 20 mg/ml
  visible growth: −
P. aeruginosa 4990 [3]; Table 3
  MIC: 5000 µg/mL
P. aeruginosa 4990 [3]; UV-4B 0.04 mg/ml
  visible growth: +
P. aeruginosa 4990 [3]; UV-4B 0.08 mg/ml
  visible growth: +
P. aeruginosa 4990 [3]; UV-4B 0.16 mg/ml
  visible growth: +
P. aeruginosa 4990 [3]; UV-4B 0.31 mg/ml
  visible growth: +
P. aeruginosa 4990 [3]; UV-4B 0.63 mg/ml
  visible growth: +
P. aeruginosa 4990 [3]; UV-4B 2.50 mg/ml
  visible growth: +
P. aeruginosa 4990 [3]; UV-4B 5 mg/ml
  visible growth: −
P. aeruginosa 4990 [3]; UV-4B 10 mg/ml
  visible growth: −
P. aeruginosa 4990 [3]; UV-4B 20 mg/ml
  visible growth: −
E. coli (WT) [4]; UV-4B
  MBC: 10000 µg/mL
E. coli (WT) [4]; UV-4B 2.50 mg/ml
  growth after re-inoculation on BHI agar: +
E. coli (WT) [4]; UV-4B 5.00 mg/ml
  growth after re-inoculation on BHI agar: +
E. coli (WT) [4]; UV-4B 10 mg/ml
  growth after re-inoculation on BHI agar: −
E. coli (K12); UV-4B
  MBC: 20000 µg/mL
E. coli (K12); UV-4B 2.50 mg/ml
  growth after re-inoculation on BHI agar: +
E. coli (K12); UV-4B 5.00 mg/ml
  growth after re-inoculation on BHI agar: +
E. coli (K12); UV-4B 10 mg/ml
  growth after re-inoculation on BHI agar: +
E. coli (K12); UV-4B 20 mg/ml
  growth after re-inoculation on BHI agar: +
P. aeruginosa 4961; UV-4B
  MBC: >20000 µg/mL
P. aeruginosa 4961; UV-4B 2.50 mg/ml
  growth after re-inoculation on BHI agar: +
P. aeruginosa 4961; UV-4B 5.00 mg/ml
  growth after re-inoculation on BHI agar: +
P. aeruginosa 4961; UV-4B 10 mg/ml
  growth after re-inoculation on BHI agar: +
P. aeruginosa 4961; UV-4B 20 mg/ml
  growth after re-inoculation on BHI agar: +
P. aeruginosa 4990 [5]; UV-4B
  MBC: >20000 µg/mL
P. aeruginosa 4990 [5]; UV-4B 2.50 mg/ml
  growth after re-inoculation on BHI agar: +
P. aeruginosa 4990 [5]; UV-4B 5.00 mg/ml
  growth after re-inoculation on BHI agar: +
P. aeruginosa 4990 [5]; UV-4B 10 mg/ml
  growth after re-inoculation on BHI agar: +
P. aeruginosa 4990 [5]; UV-4B 20 mg/ml
  growth after re-inoculation on BHI agar: +
